Data: patent US20240294543A1, “CYCLOHEPTA-THIENO-DIAZEPINE DERIVATIVES AS GABA A GAMMA1 PAM” (Hoffmann-La Roche Inc., priority 2021, published 2024)

Tests used:
[1] = target: human GABAA α1β2γ1 receptor (Homo sapiens (Human), UniProt P14867+Q8N1C3); experiment: Radioligand binding assay, competition for [3H]RO7239181, γ1-containing GABAA subtypes; conditions: Ki h-GABAA α1β2γ1, membranes of HEK293F cells, [3H]RO7239181 20-30 nM, Table 1
h-GABA-A α2β2γ1 = h-GABA-A α2β2γ1 (Homo sapiens (Human), UniProt P47869+Q8N1C3); experiment: Two-electrode voltage clamp electrophysiology in Xenopus oocytes expressing GABAA receptors; format: cell-based; conditions: for Efficacy (GABA) %: % modulation of GABA EC20 = 100*(Fold increase−1), compound at about 30-fold its Ki α2β2γ1; for Fold increase h-GABA-A α2β2γ1 oocyte @ 30-fold Ki: Xenopus oocytes, GABA EC20, compound at about 30-fold its Ki α2β2γ1
Description: Xenopus Oocytes Preparation Xenopus laevis oocytes at maturation stages V-VI were used for the expression of cloned mRNA encoding GABAA receptor subunits. Oocytes ready for RNA micro-injection were bought from Ecocyte, Castrop-Rauxel, Germany and stored in modified Barth's medium (composition in mM: NaCl 88, KCl 1, NaHCO3 2.4, HEPES 10, MgSO4 0.82, CaNO3 0.33, CaCl2 0.33, pH=7.5) at 20° C. until the experiment.
Oocytes were plated in 96-well plates for microinjection using the Roboinject automated instrument (MultiChannelSystems, Reutlingen, Germany). Approximately 50 nL of an aqueous solution containing the RNA transcripts for the subunits of the desired GABAA receptor subtype was injected into each oocyte. […] Oocytes were kept in modified Barth's medium (composition in mM: NaCl 88, KCl 1, NaHCO3 […], HEPES 10, MgSO4 0.82, CaNO3 0.33, CaCl2 0.33, pH=7.5) at 20° C. until the experiment.
Electrophysiological experiments were performed using the Roboocyte instrument (MultiChannelSystems, Reutlingen, Germany) on days 3 to 5 after the micro-injection of mRNA. During the experiment the oocytes were constantly superfused by a solution containing (in mM) NaCl 90, KCl 1, HEPES 5, MgCl2 1, CaCl2 1 (pH 7.4). Oocytes were impaled by two glass microelectrodes (resistance: 0.5-0.8 MQ) which were filled with a solution containing KCl 1M+K-acetate 1.5 M and voltage-clamped to −80 mV. The recordings were performed at room temperature using the Roboocyte two-electrode voltage clamp system (Multichannelsystem). After an initial equilibration period of 1.5 min GABA was added for 1.5 min at a concentration evoking approximately 20% of a maximal current response (EC20). After another rest interval of 2.5 min GABA was again added evoking a response of similar amplitude and shape. […] Current traces were recorded at a digitization rate of 10 Hz during and shortly before and after the GABA application.
Each compound and concentration was tested on at least 3 oocytes. Different oocytes were used for different compound concentrations.
For the analysis, the digitized current traces of the first and second GABA response were superimposed and, if necessary, rescaled to equal maximal amplitudes. The ratio between the two responses during the time interval of test compound application was calculated point by point. The extremum of the resulting “ratio trace” was taken as the efficacy (“Fold increase”) of the compound expressed as “% modulation of GABA EC20” (100*(Fold increase−1)).

## Cc1nnc2n1-c1sc3c(c1C(c1c(F)cccc1F)=N[C@H]2C)CCC(F)C(F)C3 (single isomer, unassigned) [Example 34]
[1]
  Ki: 103 nM
h-GABA-A α2β2γ1
  Efficacy (GABA) %: 134%
  Fold increase h-GABA-A α2β2γ1 oocyte @ 30-fold Ki: 2.34

## Cc1nnc2n1-c1sc3c(c1C(c1c(F)cccc1F)=N[C@H]2C)CCCCC3 [Example 2, (7S)-9-(2,6-difluorophenyl)-3,7-dimethyl-18-thia-2,4,5,8-tetrazatetracyclo[8.8.0.02,6.011,17]octadeca-1(10),3,5,8,11(17)-pentaene]
[1]
  Ki: 19.2 nM
h-GABA-A α2β2γ1
  Efficacy (GABA) %: 66%
  Fold increase h-GABA-A α2β2γ1 oocyte @ 30-fold Ki: 1.66

## Cc1nnc2n1-c1sc3c(c1C(c1c(F)cccc1F)=N[C@H]2C)CC[C@@H](F)CC3 (single isomer, unassigned) [Example 15]
[1]
  Ki: 131 nM
h-GABA-A α2β2γ1
  Efficacy (GABA) %: 144%
  Fold increase h-GABA-A α2β2γ1 oocyte @ 30-fold Ki: 2.44

## C[C@@H]1N=C(c2c(F)cccc2F)c2c(sc3c2COCCC3)-n2cc(C(=O)NCCO)nc21 [Example 66, (7S)-9-(2,6-difluorophenyl)-N-(2-hydroxyethyl)-7-methyl-13-oxa-18-thia-2,5,8-triazatetracyclo[8.8.0.02,6.011,17]octadeca-1(10),3,5,8,11(17)-pentaene-4-carboxamide]
h-GABA-A α2β2γ1
  Efficacy (GABA) %: 153%
  Fold increase h-GABA-A α2β2γ1 oocyte @ 30-fold Ki: 2.53

## Cc1nnc2n1-c1sc3c(c1C(c1c(F)cccc1F)=N[C@H]2C)CCCC(O)C3 (mixture of isomers) [Example 13, (7S,15RS)-9-(2,6-difluorophenyl)-3,7-dimethyl-18-thia-2,4,5,8-tetrazatetracyclo[8.8.0.02,6.011,17]octadeca-1(10),3,5,8,11(17)-pentaen-15-ol]
h-GABA-A α2β2γ1
  Efficacy (GABA) %: 80%
  Fold increase h-GABA-A α2β2γ1 oocyte @ 30-fold Ki: 1.80

## Cc1nc2n(n1)-c1sc3c(c1C(c1c(F)cccc1F)=N[C@H]2C)COCCC3 [Example 57, (7S)-9-(2,6-difluorophenyl)-4,7-dimethyl-13-oxa-18-thia-2,3,5,8-tetrazatetracyclo[8.8.0.02,6.011,17]octadeca-1(10),3,5,8,11(17)-pentaene]
h-GABA-A α2β2γ1
  Efficacy (GABA) %: 73%
  Fold increase h-GABA-A α2β2γ1 oocyte @ 30-fold Ki: 1.73

## Cc1nc2n(n1)-c1sc3c(c1C(c1c(F)cccc1F)=N[C@H]2C)COCCO3 [Example 28, (7S)-9-(2,6-difluorophenyl)-4,7-dimethyl-13,16-dioxa-18-thia-2,3,5,8-tetrazatetracyclo[8.8.0.02,6.011,17]octadeca-1(10),3,5,8,11(17)-pentaene]
h-GABA-A α2β2γ1
  Efficacy (GABA) %: 40%
  Fold increase h-GABA-A α2β2γ1 oocyte @ 30-fold Ki: 1.40

## C[C@@H]1N=C(c2c(F)cccc2F)c2c(sc3c2COCCO3)-n2c(C3CC3)nnc21 [Example 43, (7S)-3-cyclopropyl-9-(2,6-difluorophenyl)-7-methyl-13,16-dioxa-18-thia-2,4,5,8-tetrazatetracyclo[8.8.0.02,6.011,17]octadeca-1(10),3,5,8,11(17)-pentaene]
h-GABA-A α2β2γ1
  Efficacy (GABA) %: 94%
  Fold increase h-GABA-A α2β2γ1 oocyte @ 30-fold Ki: 1.94

## Cc1nc2n(n1)-c1sc3c(c1C(c1c(F)cccc1F)=N[C@H]2C)COC[C@H](C)O3 [Example 39, (7S,15S)-9-(2,6-difluorophenyl)-4,7,15-trimethyl-13,16-dioxa-18-thia-2,3,5,8-tetrazatetracyclo[8.8.0.02,6.011,17]octadeca-1(10),3,5,8,11(17)-pentaene]
h-GABA-A α2β2γ1
  Efficacy (GABA) %: 150%
  Fold increase h-GABA-A α2β2γ1 oocyte @ 30-fold Ki: 2.50

## Cc1nnc2n1-c1sc3c(c1C(c1c(F)cccc1F)=N[C@H]2C)CC[C@@H](F)CO3 [Example 56, (7S,14R)-9-(2,6-difluorophenyl)-14-fluoro-3,7-dimethyl-16-oxa-18-thia-2,4,5,8-tetrazatetracyclo[8.8.0.02,6.011,17]octadeca-1(10),3,5,8,11(17)-pentaene]
h-GABA-A α2β2γ1
  Efficacy (GABA) %: 147%
  Fold increase h-GABA-A α2β2γ1 oocyte @ 30-fold Ki: 2.47

## C[C@@H]1N=C(c2c(F)cccc2F)c2c(sc3c2CCCCC3)-n2c(C3CC3)nnc21 [Example 3, (7S)-3-cyclopropyl-9-(2,6-difluorophenyl)-7-methyl-18-thia-2,4,5,8-tetrazatetracyclo[8.8.0.02,6.011,17]octadeca-1(10),3,5,8,11(17)-pentaene]
h-GABA-A α2β2γ1
  Efficacy (GABA) %: 91%
  Fold increase h-GABA-A α2β2γ1 oocyte @ 30-fold Ki: 1.91

## CCNC(=O)c1nc2n(n1)-c1sc3c(c1C(c1c(F)cccc1F)=N[C@H]2C)COCCO3 [Example 37, (7S)-9-(2,6-difluorophenyl)-N-ethyl-7-methyl-13,16-dioxa-18-thia-2,3,5,8-tetrazatetracyclo[8.8.0.02,6.011,17]octadeca-1(10),3,5,8,11(17)-pentaene-4-carboxamide]
h-GABA-A α2β2γ1
  Efficacy (GABA) %: 86%
  Fold increase h-GABA-A α2β2γ1 oocyte @ 30-fold Ki: 1.86

## C[C@@H]1N=C(c2c(F)cccc2F)c2c(sc3c2COCCO3)-n2nc(C(=O)NCCF)nc21 [Example 25, (7S)-9-(2,6-difluorophenyl)-N-(2-fluoroethyl)-7-methyl-13,16-dioxa-18-thia-2,3,5,8-tetrazatetracyclo[8.8.0.02,6.011,17]octadeca-1(10),3,5,8,11(17)-pentaene-4-carboxamide]
h-GABA-A α2β2γ1
  Efficacy (GABA) %: 99%
  Fold increase h-GABA-A α2β2γ1 oocyte @ 30-fold Ki: 1.99

## C[C@@H]1N=C(c2c(F)cccc2F)c2c(sc3c2COCCO3)-n2nc(C(=O)N3CC(OC(C)(C)C)C3)nc21 [Example 29, (3-tert-butoxyazetidin-1-yl)-[(7S)-9-(2,6-difluorophenyl)-7-methyl-13,16-dioxa-18-thia-2,3,5,8-tetrazatetracyclo[8.8.0.02,6.011,17]octadeca-1(10),3,5,8,11(17)-pentaen-4-yl]methanone]
h-GABA-A α2β2γ1
  Efficacy (GABA) %: 79%
  Fold increase h-GABA-A α2β2γ1 oocyte @ 30-fold Ki: 1.79

## Cc1nc2n(n1)-c1sc3c(c1C(c1c(F)cccc1F)=N[C@H]2C)CCCCC3 [Example 20, (7S)-9-(2,6-difluorophenyl)-4,7-dimethyl-18-thia-2,3,5,8-tetrazatetracyclo[8.8.0.02,6.011,17]octadeca-1(10),3,5,8,11(17)-pentaene]
h-GABA-A α2β2γ1
  Efficacy (GABA) %: 76%
  Fold increase h-GABA-A α2β2γ1 oocyte @ 30-fold Ki: 1.76

## CC(C)c1nnc2n1-c1sc3c(c1C(c1c(F)cccc1F)=N[C@H]2C)COCCO3 [Example 44, (7S)-9-(2,6-difluorophenyl)-3-isopropyl-7-methyl-13,16-dioxa-18-thia-2,4,5,8-tetrazatetracyclo[8.8.0.02,6.011,17]octadeca-1(10),3,5,8,11(17)-pentaene]
h-GABA-A α2β2γ1
  Efficacy (GABA) %: 116%
  Fold increase h-GABA-A α2β2γ1 oocyte @ 30-fold Ki: 2.16

## C[C@@H]1N=C(c2c(F)cccc2F)c2c(sc3c2COCCO3)-n2nc(C(=O)NC3CC3)nc21 [Example 36]
h-GABA-A α2β2γ1
  Efficacy (GABA) %: 89%
  Fold increase h-GABA-A α2β2γ1 oocyte @ 30-fold Ki: 1.89

## C[C@@H]1N=C(c2c(F)cccc2F)c2c(sc3c2CCCCC3)-n2ccc(=O)nc21 [Example 7, (8S)-10-(2,6-difluorophenyl)-8-methyl-19-thia-2,6,9-triazatetracyclo[9.8.0.02,7.012,18]nonadeca-1(11),3,6,9,12(18)-pentaen-5-one]
h-GABA-A α2β2γ1
  Efficacy (GABA) %: 169%
  Fold increase h-GABA-A α2β2γ1 oocyte @ 30-fold Ki: 2.69

## C[C@@H]1N=C(c2c(F)cccc2F)c2c(sc3c2COCCO3)-n2cc(C(=O)NCC3(O)CC3)nc21 [Example 65, (7S)-9-(2,6-difluorophenyl)-N-[(1-hydroxycyclopropyl)methyl]-7-methyl-13,16-dioxa-18-thia-2,5,8-triazatetracyclo[8.8.0.02,6.011,17]octadeca-1(10),3,5,8,11(17)-pentaene-4-carboxamide]
h-GABA-A α2β2γ1
  Efficacy (GABA) %: 169%
  Fold increase h-GABA-A α2β2γ1 oocyte @ 30-fold Ki: 2.69

## Cc1nnc2n1-c1sc3c(c1C(c1c(F)cccc1F)=N[C@H]2C)CC[C@@H](O)CC3 [Example 27, (7S,14R)-9-(2,6-difluorophenyl)-3,7-dimethyl-18-thia-2,4,5,8-tetrazatetracyclo[8.8.0.02,6.011,17]octadeca-1(10),3,5,8,11(17)-pentaen-14-ol]
h-GABA-A α2β2γ1
  Efficacy (GABA) %: 77%
  Fold increase h-GABA-A α2β2γ1 oocyte @ 30-fold Ki: 1.77

## CCc1nnc2n1-c1sc3c(c1C(c1c(F)cccc1F)=N[C@H]2C)COCCO3 [Example 42, (7S)-9-(2,6-difluorophenyl)-3-ethyl-7-methyl-13,16-dioxa-18-thia-2,4,5,8-tetrazatetracyclo[8.8.0.02,6.011,17]octadeca-1(10),3,5,8,11(17)-pentaene]
h-GABA-A α2β2γ1
  Efficacy (GABA) %: 137%
  Fold increase h-GABA-A α2β2γ1 oocyte @ 30-fold Ki: 2.37
